Measured values taken from PubChem BioAssay AID248 (DTP/NCI, 2004).
Where “and” joins values, the source holds several entries; their conditions need not be identical. Equal entries are not always repeated. Inconclusive results and toxic doses are left out. No stated cut-off is given here; in the data, active means T/C of 150% or more; inactive means T/C below 125%.

Test system: L1210 leukemia ip in BDF1 mice, survival T/C
Assay: NCI In Vivo Anticancer Drug Screen. Data for tumor model L1210 Leukemia (intraperitoneal) in B6D2F1 (BDF1) mice
Details: endpoint: mean survival time, higher = longer survival
Outline: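 Value reflects the ratio of survival in compound-treated mice to survival in vehicle-treated controls, with both groups carrying the same transplanted tumor.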

[1] = dose: 100.0 mg/kg/injection, schedule: Q04DX003 (ip), vehicle: saline with Tween-80
[2] = dose: 200.0 mg/kg/injection, schedule: Q04DX003 (ip), vehicle: saline with Tween-80
[3] = dose: 100.0 mg/kg/injection, schedule: Q04DX002 (ip), vehicle: Klucel (hydroxypropylcellulose) (HPC)
[4] = dose: 200.0 mg/kg/injection, schedule: Q04DX002 (ip), vehicle: Klucel (hydroxypropylcellulose) (HPC)
[5] = dose: 400.0 mg/kg/injection, schedule: Q04DX002 (ip), vehicle: Klucel (hydroxypropylcellulose) (HPC)
[6] = dose: 100.0 mg/kg/injection, schedule: Q01DX001 (ip), vehicle: Klucel (hydroxypropylcellulose) (HPC)
[7] = dose: 200.0 mg/kg/injection, schedule: Q01DX001 (ip), vehicle: Klucel (hydroxypropylcellulose) (HPC)
[8] = dose: 400.0 mg/kg/injection, schedule: Q01DX001 (ip), vehicle: Klucel (hydroxypropylcellulose) (HPC)
[9] = dose: 100.0 mg/kg/injection, schedule: Q04DX003 (ip), vehicle: Klucel (hydroxypropylcellulose) (HPC)
[10] = dose: 200.0 mg/kg/injection, schedule: Q04DX003 (ip), vehicle: Klucel (hydroxypropylcellulose) (HPC)
[11] = dose: 400.0 mg/kg/injection, schedule: Q04DX003 (ip), vehicle: Klucel (hydroxypropylcellulose) (HPC)

Measured: T/C

CC(=O)c1ccccc1OCC(O)CN1CCN(c2ccccc2Cl)CC1 (stereo unspecified)
inactive: dose: 37.5 mg/kg/injection, schedule: Q01DX009 (ip), vehicle: saline with Tween-80 97 % of control | dose: 37.5 mg/kg/injection, schedule: Q04DX003 (ip), vehicle: saline with Tween-80 105 % of control | dose: 75.0 mg/kg/injection, schedule: Q01DX009 (ip), vehicle: saline with Tween-80 89 % of control | dose: 75.0 mg/kg/injection, schedule: Q04DX003 (ip), vehicle: saline with Tween-80 108 % of control | dose: 150.0 mg/kg/injection, schedule: Q01DX009 (ip), vehicle: saline with Tween-80 93 % of control | dose: 150.0 mg/kg/injection, schedule: Q04DX003 (ip), vehicle: saline with Tween-80 94 % of control

CC(C)N=C(NC(C)C)N1CC1
inactive: dose: 10.0 mg/kg/injection, schedule: Q01DX009 (ip), vehicle: saline 106 % of control | dose: 20.0 mg/kg/injection, schedule: Q01DX001 (ip), vehicle: saline 104 % of control | dose: 20.0 mg/kg/injection, schedule: Q01DX009 (ip), vehicle: saline 105 % of control | dose: 40.0 mg/kg/injection, schedule: Q01DX001 (ip), vehicle: saline 104 % of control | dose: 40.0 mg/kg/injection, schedule: Q01DX009 (ip), vehicle: saline 100 % of control

COc1c2c(c(OC)c3c(=O)c4ccccc4[nH]c13)OCO2
inactive: dose: 62.5 mg/kg/injection, schedule: Q01DX001 (ip), vehicle: carboxymethylcellulose (CMC) 100 % of control | dose: 125.0 mg/kg/injection, schedule: Q01DX001 (ip), vehicle: carboxymethylcellulose (CMC) 97 % of control | dose: 250.0 mg/kg/injection, schedule: Q01DX001 (ip), vehicle: carboxymethylcellulose (CMC) 105 % of control | dose: 500.0 mg/kg/injection, schedule: Q01DX001 (ip), vehicle: carboxymethylcellulose (CMC) 97 % of control

OCC1=CCC2c3[nH]c4ccccc4c3CCN2C1 (stereo unspecified)
inactive: [1] 106 % of control | [2] 90 % of control

COC(=O)c1ccccc1NC(c1ccccn1)c1ccc2cccnc2c1O (stereo unspecified)
inactive: dose: 125.0 mg/kg/injection, schedule: Q01DX Z (ip), vehicle: carboxymethylcellulose (CMC) 108 % of control | dose: 250.0 mg/kg/injection, schedule: Q01DX Z (ip), vehicle: carboxymethylcellulose (CMC) 102 % of control | dose: 500.0 mg/kg/injection, schedule: Q01DX Z (ip), vehicle: carboxymethylcellulose (CMC) 101 % of control

O=Cc1ccc(OCc2ccccc2)cc1
inactive: [3] 96 % of control | [4] 96 % of control | [5] 92 % of control

Cc1ccc(C(C)(O)CC(O)(C(F)(F)F)C(F)(F)F)cc1 (stereo unspecified)
inactive: [6] 104 % of control | dose: 100.0 mg/kg/injection, schedule: Q01DX009 (ip), vehicle: Klucel (hydroxypropylcellulose) (HPC) 99 % of control | [7] 106 % of control | dose: 200.0 mg/kg/injection, schedule: Q01DX009 (ip), vehicle: Klucel (hydroxypropylcellulose) (HPC) 99 % of control | [8] 96 % of control | dose: 400.0 mg/kg/injection, schedule: Q01DX009 (ip), vehicle: Klucel (hydroxypropylcellulose) (HPC) 98 % of control

CCC(C(OC(=O)Nc1ccc(Cl)c(Cl)c1)c1ccc(Cl)cc1)C(O)(C(F)(F)F)C(F)(F)F (stereo unspecified)
inactive: [9] 98 % of control | [10] 100 % of control | [11] 98 % of control

Cc1n(C)c(=O)c2ccccc2[n+]1C
inactive: [6] 106 % of control | [7] 87 % of control | [8] 97 % of control

C=CC[n+]1ccccc1Cc1ccccc1
inactive: dose: 6.25 mg/kg/injection, schedule: Q01DX009 (ip), vehicle: saline 100 % of control | dose: 12.5 mg/kg/injection, schedule: Q01DX009 (ip), vehicle: saline 108 % of control | dose: 12.5 mg/kg/injection, schedule: Q04DX003 (ip), vehicle: saline 104 % of control | dose: 25.0 mg/kg/injection, schedule: Q01DX009 (ip), vehicle: saline 103 % of control | dose: 25.0 mg/kg/injection, schedule: Q04DX003 (ip), vehicle: saline 107 % of control

O=C(Nc1cccc(Cl)c1)OCCOCCOC(=O)Nc1cccc(Cl)c1
inactive: [9] 93 % of control and 104 % of control | [10] 101 % of control and 106 % of control | [11] 97 % of control and 98 % of control

c1ccc(P(=NC2CCCCCC2)(c2ccccc2)c2ccccc2)cc1
inactive: dose: 100.0 mg/kg/injection, schedule: Q01DX001 (ip), vehicle: acetone 95 % of control | dose: 200.0 mg/kg/injection, schedule: Q01DX001 (ip), vehicle: acetone 94 % of control

O=[N+]([O-])c1ccc(S(=O)(=O)F)c(Cl)c1
inactive: dose: 100.0 mg/kg/injection, schedule: Q01DX001 (ip), vehicle: saline 98 % of control | dose: 200.0 mg/kg/injection, schedule: Q01DX001 (ip), vehicle: saline 90 % of control | dose: 400.0 mg/kg/injection, schedule: Q01DX001 (ip), vehicle: saline 96 % of control

CC1(CO)COCOC1
inactive: dose: 50.0 mg/kg/injection, schedule: Q01DX009 (ip), vehicle: acetone 104 % of control | dose: 100.0 mg/kg/injection, schedule: Q01DX009 (ip), vehicle: acetone 108 % of control | dose: 100.0 mg/kg/injection, schedule: Q04DX003 (ip), vehicle: acetone 95 % of control | dose: 200.0 mg/kg/injection, schedule: Q01DX009 (ip), vehicle: acetone 104 % of control | dose: 200.0 mg/kg/injection, schedule: Q04DX003 (ip), vehicle: acetone 105 % of control | dose: 400.0 mg/kg/injection, schedule: Q04DX003 (ip), vehicle: acetone 97 % of control

COC(=O)c1cc2c(cc1[N+](=O)[O-])OCO2
inactive: [3] 114 % of control | [4] 114 % of control | [5] 95 % of control

CCCC/C=C(/C)C1(CC)C(=O)NC(=O)NC1=O
inactive: dose: 75.0 mg/kg/injection, schedule: Q01DX001 (ip), vehicle: saline 100 % of control and 98 % of control | dose: 150.0 mg/kg/injection, schedule: Q01DX001 (ip), vehicle: saline 93 % of control and 102 % of control

CCCS(=O)(=O)N(CC(=O)O)Cc1ccccc1
inactive: dose: 50.0 mg/kg/injection, schedule: Q01DX009 (ip), vehicle: other 110 % of control | dose: 100.0 mg/kg/injection, schedule: Q01DX009 (ip), vehicle: other 106 % of control and 107 % of control | [1] 101 % of control | dose: 200.0 mg/kg/injection, schedule: Q01DX009 (ip), vehicle: other 112 % of control and 115 % of control | [2] 104 % of control | dose: 400.0 mg/kg/injection, schedule: Q01DX009 (ip), vehicle: other 104 % of control | dose: 400.0 mg/kg/injection, schedule: Q04DX003 (ip), vehicle: saline with Tween-80 100 % of control
